Our source for the Km values is article PMC12414871, “Unraveling the functional dynamics of Caenorhabditis elegans stress‐responsive omega class GST‐44” (The Febs Journal, 2025).

Each structure is given as a SMILES string.

The experiment concerns the target T1, GST‐44 (Caenorhabditis elegans, UniProt O45352).
T1 construct: recombinant, E. coli BL21(DE3), vector pJC40 with removable N-terminal His tag, Ni-NTA purified
Kind of experiment: thioltransferase assay, substrate saturation curve and Lineweaver-Burk diagram. In kind it is biochemical. As to conditions: co-substrate GSH (thioltransferase assay; reduction of spontaneously formed mixed disulfide).

T1 sequence (O45352 entry or part of it): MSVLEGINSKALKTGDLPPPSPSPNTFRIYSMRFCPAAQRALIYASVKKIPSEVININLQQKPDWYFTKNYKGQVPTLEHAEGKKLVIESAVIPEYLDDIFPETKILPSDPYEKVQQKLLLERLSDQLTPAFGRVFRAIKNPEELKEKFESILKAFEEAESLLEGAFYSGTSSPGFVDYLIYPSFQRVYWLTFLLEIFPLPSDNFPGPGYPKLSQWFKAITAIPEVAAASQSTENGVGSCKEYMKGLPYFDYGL

The term Km denotes the substrate concentration at which the rate is half of its maximum. Regarding `OCCSSCCO` [2‐hydroxyethyl disulfide], the Km came out at 160 µM.
